Source: paper PMC12081876, “Identification of PTGR2 inhibitors as a new therapeutic strategy for diabetes and obesity” (EMBO Molecular Medicine, 2025)
“And” between values parts separate entries of the source, which are not always exact repeats. Identical values can stand only once.

Key:
[1] = tested on: HFHSD-fed obese C57BL6/J mice; experiment: Intraperitoneal glucose tolerance test (ipGTT); format: in vivo, mouse; set-up: Figure 2H Average (glucose, ipGTT) / ipGTT / ipGTT glucose, Average / Blood glucose during glucose tolerance test (Figure 5L), Average: unit not given here; details: for ipGTT: individual mice
Description: (§1) Glucose tolerance was evaluated by the oral (OGTT) and intraperitoneal glucose tolerance test (ipGTT) after a 6-h fast. For the OGTT, glucose water (1 mg/g) was given by oral gavage, and tail blood glucose was measured with a glucometer (ACCU-CHEK Performa, Roche) at 0, 15, 30, 45, 60, 90, and 120 min. For the ipGTT, tail blood glucose was measured at 0, 15, 30, 45, 60, 90, and 120 min after intraperitoneal injection of glucose water (1 mg/g). For the insulin tolerance test (ITT), mice were fasted for 4 h and then injected intraperitoneally with 1 U/kg of insulin (Humulin R, Eli Lilly). Tail blood glucose was measured at 0, 15, 30, 45, 60, 90, 120, and 180 min.

[2] = tested on: HFHSD-fed obese C57BL6/J mice; experiment: Insulin tolerance test (ITT); format: in vivo, mouse; set-up: Figure 2I Average (glucose, ITT) / ITT / ITT glucose, Average / Blood glucose during insulin tolerance test (Figure 5M), Average: unit not given here; details: for ITT: individual mice
Description: as §1

[3] = tested on: differentiated 3T3-L1 adipocytes; experiment: Insulin-stimulated glucose uptake assay by (3H)2-deoxyglucose; format: cell-based, mouse; set-up: insulin-stimulated glucose uptake, Fig 1J replicates / Figure 5E raw value, insulin-stimulated glucose uptake (replicates): unit not given here
[4] = tested on: HFHSD-fed obese C57BL6/J mice; experiment: Body weight / diet-induced obesity in HFHSD-fed mice; format: in vivo, mouse; details: 40 mg/kg/day ip; for Body weight, individual mice / Body weight, Average: in g (unit assumed)
[5] = 40 mg/kg/day ip, 3 weeks, HFHSD-fed mice, vs vehicle

CCCCCC(=O)/C=C/[C@H]1[C@H](O)CC(=O)[C@@H]1C/C=C\CCCC(=O)O [15-keto-PGE2, 15-keto-prostaglandin E2]
glucose tolerance (ipGTT) [1, 5]: markedly improved
ipGTT ([1]; 0 min): 105 and 98 and 102 and 88 and 151 and 155 and 75 and 78 and 93 and 125 and 111
ipGTT ([1]; 15 min): 222 and 226 and 190 and 213 and 239 and 234 and 324 and 231 and 152 and 188 and 183 and 251 and 245 and 276
ipGTT ([1]; 30 min): 262 and 264 and 155 and 201 and 221 and 211 and 273 and 247 and 125 and 124 and 200 and 186 and 235 and 231 and 280
ipGTT ([1]; 45 min): 229 and 251 and 162 and 188 and 184 and 199 and 252 and 215 and 109 and 112 and 132 and 155 and 211 and 175 and 213
ipGTT ([1]; 60 min): 262 and 225 and 130 and 171 and 177 and 179 and 196 and 206 and 110 and 120 and 89 and 133 and 182 and 155 and 205
ipGTT ([1]; 90 min): 208 and 191 and 114 and 152 and 166 and 143 and 171 and 181 and 88 and 108 and 112 and 151 and 124
ipGTT ([1]; 120 min): 166 and 121 and 99 and 122 and 118 and 90 and 69 and 80 and 108 and 131 and 100 and 135
Figure 2H Average (glucose, ipGTT) ([1]; time 0): 108.467
Figure 2H Average (glucose, ipGTT) ([1]; time 15): 223.8
Figure 2H Average (glucose, ipGTT) ([1]; time 30): 214.333
Figure 2H Average (glucose, ipGTT) ([1]; time 45): 185.8
Figure 2H Average (glucose, ipGTT) ([1]; time 60): 169.333
Figure 2H Average (glucose, ipGTT) ([1]; time 90): 144.2
Figure 2H Average (glucose, ipGTT) ([1]; time 120): 109.267
insulin sensitivity (ITT) [2, 5]: markedly improved
ITT ([2]; 0 min): 113 and 114 and 91 and 147 and 149 and 115 and 92 and 118 and 94 and 110 and 98 and 125
ITT ([2]; 15 min): 59 and 78 and 70 and 67 and 83 and 90 and 111 and 75 and 45 and 63 and 82 and 49 and 92
ITT ([2]; 30 min): 56 and 79 and 54 and 62 and 52 and 71 and 66 and 57 and 43 and 75 and 46
ITT ([2]; 45 min): 34 and 60 and 37 and 51 and 42 and 62 and 56 and 47 and 44 and 30 and 54 and 50 and 29
ITT ([2]; 60 min): 23 and 57 and 21 and 58 and 46 and 66 and 49 and 34 and 31 and 26 and 51 and 53 and 50 and 39 and 29
ITT ([2]; 90 min): 22 and 65 and 25 and 41 and 63 and 57 and 31 and 37 and 56 and 38 and 49 and 24 and 27
ITT ([2]; 120 min): 46 and 53 and 25 and 39 and 54 and 62 and 47 and 31 and 70 and 51 and 36
ITT ([2]; 180 min): 98 and 66 and 25 and 65 and 84 and 62 and 77 and 73 and 54 and 78 and 69 and 82
Figure 2I Average (glucose, ITT) ([2]; time 0): 112.333
Figure 2I Average (glucose, ITT) ([2]; time 15): 74.4667
Figure 2I Average (glucose, ITT) ([2]; time 30): 60.8
Figure 2I Average (glucose, ITT) ([2]; time 45): 46.2667
Figure 2I Average (glucose, ITT) ([2]; time 60): 42.2
Figure 2I Average (glucose, ITT) ([2]; time 90): 41.1333
Figure 2I Average (glucose, ITT) ([2]; time 120): 45.6667
Figure 2I Average (glucose, ITT) ([2]; time 180): 67.6667
insulin-stimulated glucose uptake, Fig 1J replicates ([3]; 15kPGE2 1): 1.328 and 1.441 and 0.8491 and 1.4653
insulin-stimulated glucose uptake, Fig 1J replicates ([3]; 15kPGE2 5): 3.521 and 4.331 and 2.858 and 2.553
insulin-stimulated glucose uptake, Fig 1J replicates ([3]; 15kPGE2 10): 4.083 and 4.476 and 3.119 and 3.373
insulin-stimulated glucose uptake ([3]; differentiated 3T3-L1 adipocytes): increased insulin-stimulated glucose uptake in differentiated 3T3-L1 adipocytes dose-dependently
diet-induced obesity (body weight) ([4]; 3 weeks, HFHSD-fed mice, vs vehicle): protected against diet-induced obesity
Body weight, individual mice ([4]; treatment day 1, 40 mg/kg/day): 31.70 and 29.90 and 31.10 and 26.25 and 27.55
Body weight, Average ([4]; treatment day 1): 29.83
Body weight, individual mice ([4]; treatment day 2, 40 mg/kg/day): 31.55 and 28.75 and 30.85 and 26.15 and 27.85
Body weight, Average ([4]; treatment day 2): 29.61
Body weight, Average ([4]; treatment day 3, 40 mg/kg/day): 29.4
Body weight, individual mice ([4]; treatment day 3, 40 mg/kg/day): 31.60 and 29.00 and 30.75 and 25.90 and 26.35
Body weight, individual mice ([4]; treatment day 4, 40 mg/kg/day): 32.50 and 27.95 and 30.90 and 25.75 and 26.90
Body weight, Average ([4]; treatment day 4): 29.42
Body weight, individual mice ([4]; treatment day 5, 40 mg/kg/day): 32.50 and 26.45 and 30.70 and 25.35 and 26.25
Body weight, Average ([4]; treatment day 5): 29.42
Body weight, individual mice ([4]; treatment day 6, 40 mg/kg/day): 32.60 and 26.45 and 30.00 and 25.75
Body weight, Average ([4]; treatment day 6): 29.49
Body weight, individual mice ([4]; treatment day 7, 40 mg/kg/day): 32.60 and 26.55 and 30.10 and 26.40
Body weight, Average ([4]; treatment day 7): 29.61
Body weight, individual mice ([4]; treatment day 8, 40 mg/kg/day): 31.90 and 27.35 and 30.10 and 25.05
Body weight, Average ([4]; treatment day 8): 29.92
Body weight, individual mice ([4]; treatment day 9, 40 mg/kg/day): 31.40 and 28.05 and 30.70 and 25.90
Body weight, Average ([4]; treatment day 9): 29.95
Body weight, individual mice ([4]; treatment day 10, 40 mg/kg/day): 30.70 and 28.45 and 30.20 and 26.55 and 27.35
Body weight, Average ([4]; treatment day 10): 29.99
Body weight, individual mice ([4]; treatment day 11, 40 mg/kg/day): 31.60 and 28.55 and 30.40 and 27.50 and 26.90
Body weight, Average ([4]; treatment day 11): 30.05
Body weight, Average ([4]; treatment day 12, 40 mg/kg/day): 30.2
Body weight, individual mice ([4]; treatment day 12, 40 mg/kg/day): 31.60 and 29.05 and 30.95 and 27.45 and 27.10
Body weight, individual mice ([4]; treatment day 13, 40 mg/kg/day): 31.75 and 30.2 and 31.6 and 28.55 and 28.05
Body weight, Average ([4]; treatment day 13): 30.36
Body weight, individual mice ([4]; treatment day 14, 40 mg/kg/day): 31.65 and 30.50 and 31.35 and 28.35 and 27.80
Body weight, Average ([4]; treatment day 14): 30.49
Body weight, individual mice ([4]; treatment day 15, 40 mg/kg/day): 31.70 and 29.55 and 30.65 and 27.45 and 27.00
Body weight, Average ([4]; treatment day 15): 30.22
Body weight, individual mice ([4]; treatment day 16, 40 mg/kg/day): 31.85 and 29.40 and 30.30 and 27.00 and 26.50
Body weight, Average ([4]; treatment day 16): 30.12
Body weight, individual mice ([4]; treatment day 17, 40 mg/kg/day): 32.75 and 29.85 and 31.95 and 27.85 and 26.80
Body weight, Average ([4]; treatment day 17): 30.56
Body weight, individual mice ([4]; treatment day 18, 40 mg/kg/day): 31.80 and 29.75 and 32.10 and 27.75
Body weight, Average ([4]; treatment day 18): 30.63
Body weight, individual mice ([4]; treatment day 19, 40 mg/kg/day): 33.15 and 31.50 and 32.00 and 28.35 and 27.70
Body weight, Average ([4]; treatment day 19): 30.65
Body weight, individual mice ([4]; treatment day 20, 40 mg/kg/day): 33.10 and 30.85 and 31.55 and 27.75 and 27.15
Body weight, Average ([4]; treatment day 20): 30.69
Body weight, individual mice ([4]; treatment day 21, 40 mg/kg/day): 32.55 and 30.9 and 31.6 and 28 and 28.15
Body weight, Average ([4]; treatment day 21): 30.73
